Laboratory results reported in patent US8501186B2, “Adjuvant composition for vaccine” (Serum Institute of India, Ltd., priority 2009, dated 2013).

Tested on: normal mice
Assay: Comparative adjuvant activity on total anti-polysaccharide IgG levels in normal mice (Meningococcal A polysaccharide)
Assay type: in vivo
Conditions: parenteral, 14 and 28 day; for Total IgG level: IgG day 42, Mean ± SE
Protocol: The present adjuvant and extracts were administered with Meningococcal A polysaccharide on indicated days and IgG levels were estimated on day 42 to assess adjuvant activity.

Compound | Activity (%) (percent immunomodulatory activity) (0.011 mg/kg) | Total IgG level (0.011 mg/kg) | Activity (%) (percent immunomodulatory activity) (0.0185 mg/kg) | Total IgG level (0.0185 mg/kg)
CC1=C(CO)C(=O)O[C@@H]([C@@H](C)[C@H]2CC[C@H]3[C@@H]4C[C@H]5O[C@]56[C@@H](O)C=CC(=O)[C@]6(C)[C@H]4CC[C@]23C)C1 [Withaferin A] | 38.12 | 397.47 ± 93.71 |  | 
CC1=C(C)C(=O)O[C@@H]([C@](C)(O)[C@H]2CC[C@H]3[C@@H]4[C@@H]5O[C@@H]5[C@@]5(O)CC=CC(=O)[C@]5(C)[C@H]4CC[C@]23C)C1 [Withanolide A] |  |  | 14.62 | 329.84 ± 86.82
